From patent publication US20190365744A1, “IMPROVED MULTI TYROSINE KINASE INHIBITOR THERAPY” (FRAUNHOFER-GESELLSCHAFT ZUR FORDERUNG DER ANGEWANDTEN …, priority 2017, published 2019)

Test system: CXCR4
Assay: CXCR4 PET/CT with tracer 68Ga-Pentixafor in patients with idiopathic pulmonary fibrosis, prior to and under therapy
Assay type: in vivo, human
Conditions: for CXCR4 signal (PET/CT): patients with idiopathic pulmonary fibrosis, after onset of therapy vs prior to therapy, 68Ga-Pentixafor tracer
Experimental: Patients were diagnosed with clinical idiopathic pulmonary fibrosis according to diagnostic criteria of the American Thoracic Society/European Respiratory Society.
Pentixafor synthesis. Material for synthesis of ^68Ga-pentixafor (CPCR4.2) was provided by Scintomics (Fürstenfeldbruck, Germany) Synthesis was performed as previously described (18, 19), using a ^68Ge/^68Ga-generator (Eckert&Ziegler, Braunschweig, Germany) connected to a Scintomics GRP synthesis module.
Clinical Imaging. All studies were obtained on a dedicated PET/CT system (Biograph mCT 128 Flow; Siemens, Knoxville, USA), equipped with an extended field-of-view LSO PET component, a 128-slice spiral CT component, and a magnetically driven table optimized for continuous scanning The patients received an intravenous injection of 110 (IQR, 80-120) MBq of ^68Ga-pentixafor. Imaging started with a low-dose non-enhanced helical CT (120 kV, mA modulated, pitch 1.2, reconstructed axial slice thickness 5.0 mm) performed for attenuation correction of PET acquisitions. PET images of the whole body were then acquired using continuous bed motion (CBM) at a speed of 2.0 mm/s for head and neck and 0.5 mm/s for chest and abdomen at 60 min post injection. All studies were reconstructed using time-of-flight and point-spread function information combined with an iterative algorithm (Ultra HD®, Siemens Healthcare; 2 iterations, 21 subsets, matrix 200; zoom 1.0; Gaussian filter of 5.0). In addition, a non-contrast breath-hold high-resolution CT (HRCT) (120 kV, mA modulated) of the chest was used to obtain contiguous 1.0-mm cross-sectional slices throughout the thorax.
PET/CT image analysis. Transaxial PET, CT and fused PET/CT 68Ga-pentixafor PET/CT images were analyzed on a dedicated workstation equipped with a commercial software package (syngo.via; Siemens Healthcare).
PET images were visually evaluated for the presence of elevated radiotracer uptake in lung parenchyma in areas of usual interstitial pneumonia (UIP) pattern on CT. Then, ^68Ga-Pentixafor uptake was quantified using a 3D Volume-of-Interest (VOI) technique with isocontour thresholding, yielding mean and peak standardized uptake values (SUVmean and SUVpeak). Separate measurements were performed in three subpleural regions in each lung lobe, and values for each region were then averaged for the subsequent statistical analysis. Tracer uptake in mediastinal and hilar lymph nodes was assessed in three thoracic lymph node stations using 3D VOIs with isocontour thresholding, and also averaged for the subsequent statistical analysis. In addition, tracer uptake (SUVmean) in spleen and bone marrow was […], recorded to evaluate systemic interactions.
Patients suffering from idiopathic pulmonary fibrosis were investigated for CXCR4 abundance by PET/CT using a CXCR4 tracer ^68Ga-Pentixafor as described.
The mean signal intensities (SUVmean) were determined in different regions, i.e. upper-, middle and lower fields. The volume of CXCR4-positive areas were determined and put into relation to the total volume of the respective areas. The extent of the fibrotic areas were judged in PET/CT and the SUVmean was determined for mediastinal lymph nodes, spleen and bone marrow.

Row | Structure (SMILES) | CXCR4 signal, single further patient (one of 5 analyzed patients under treatment) | CXCR4 signal intensity, single patient with familial idiopathic pulmonary fibrosis (one of 5 analyzed patients, unclear whether drug was taken on the day of investigation) | CXCR4 signal (PET/CT) | CXCR4 signal (PET/CT) (listed as Nitedanib) | patients showing a strong increase in CXCR4 signal intensity in the fibrotic areas in the lung (under treatment, these patients received 150 mg in the morning of the PET/CT day) | signal intensities for CXCR4 (cohort of 12 patients with idiopathic pulmonary fibrosis under treatment vs baseline) | strong increase of CXCR4 signal in pulmonary fibrotic areas (patients with idiopathic pulmonary fibrosis under treatment)
1 | COC(=O)c1ccc2c(c1)NC(=O)/C2=C(\Nc1ccc(N(C)C(=O)CN2CCN(C)CC2)cc1)c1ccccc1 [Nintedanib] | constant | decrease | increase | significant increase | 3 out of 5 |  | 
2 | Cc1ccc(=O)n(-c2ccccc2)c1 [Pirfenidone] |  |  |  |  |  | remained constant or even decreased | not observed
